Broadly, the Kd is the free concentration of one partner at which half of the binding sites on the other are occupied at equilibrium, for simple one-to-one binding. A low value points to a tighter complex.

Each structure is given as a SMILES string.

Among the data in paper PMC5213647, “Honokiol as a specific collagen receptor glycoprotein VI antagonist on human platelets: Functional ex vivo and in vivo studies” (Scientific Reports, 2017) are Kd values, retold here.

This assay concerns the target T1, collagen receptor glycoprotein VI (GP VI) (Homo sapiens, UniProt Q9HCN6).
T1 construct: gene GP6; native full-length receptor, captured from total human platelet lysate by immobilised anti-GP VI mAb on SPR chip; described as 60-65 kDa type I transmembrane glycoprotein
T1 sequence (Q9HCN6 21-339): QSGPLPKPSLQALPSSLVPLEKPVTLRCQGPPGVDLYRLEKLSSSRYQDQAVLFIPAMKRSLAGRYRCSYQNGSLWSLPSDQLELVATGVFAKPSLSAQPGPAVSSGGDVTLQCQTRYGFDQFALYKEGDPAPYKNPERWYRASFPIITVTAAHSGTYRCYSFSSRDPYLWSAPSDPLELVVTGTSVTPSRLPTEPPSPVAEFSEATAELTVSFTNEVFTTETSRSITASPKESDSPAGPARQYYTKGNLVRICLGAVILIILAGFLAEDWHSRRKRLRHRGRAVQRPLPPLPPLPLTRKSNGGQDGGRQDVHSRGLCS
Put plainly: SPR (ProteOn XPR36), GP VI captured by immobilised anti-GP VI mAb, kinetic […] Langmuir fit. It is filed as binding. As to conditions: PBS with 0.005% Tween 20, pH 7.4, 25 °C; native GP VI captured from platelet lysate; analyte only 10 and 100 μM.

As to `C=CCc1ccc(O)c(-c2ccc(O)c(CC=C)c2)c1` [Honokiol], binding was put at a Kd of 289 µM.
